Literature values as cited in patent publication US20120108429A1, “SAFENED AND EFFICACIOUS WEED CONTROL PARTICLE” (The Andersons, Inc., priority 2010, published 2012).

System: pentas and hemerocallis
Details: application of the herbicide

C#CCN1C(=O)COc2cc(F)c(N3C(=O)C4=C(CCCC4)C3=O)cc21 [flumioxazin]
effect on growth of ornamental plants: inhibited from properly growing
